These results are taken from ChEMBL document CHEMBL1201862, “PubChem BioAssay data set” (2004).

Test [1] is described as follows: activation of miR-122 Renilla sensor silencing – cell-based, Huh7 psiCHECK-miR122, Renilla luciferase, cherry-picked, dose response (AID 651956).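 Also: huh7 hepatoma cells stably carrying a psiCHECK-2 miR-122 sensor plasmid; renilla luciferase signal reporting endogenous miR-122 activity after 48 h compound exposure.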 It is filed as functional.
Test [2] concerns CHO. Nature of the test: CHO cell viability loss, potency – luminescence, cytotoxicity control for TLR9-MyD88 binding inhibitor project, dose response (AID 588339).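 Also: CHO cells stably coexpressing TLR9 and MyD88 fusions from primary screen; compound exposure lasted 48 hours before viability readout.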 The test is classed as functional, cell-based, hamster. The note with it: Cricetulus griseus.
A short description of test [3]: Fluorescence-based cell-based high throughput dose response assay for inhibitors of the interaction of nucleotide-binding oligomerization domain containing 2 (NOD2) and the receptor-interacting serine-threonine kinase 2 (RIPK2). The test is classed as functional. The settings on record: Homo sapiens.
Test [4] deals with Sphingosine 1-phosphate receptor 1 (Homo sapiens, UniProt P21453). The test is classed as functional.
Test [5] deals with T1, RNA-binding protein pos-1 (Caenorhabditis elegans, UniProt G5EF15).
T1 sequence (G5EF15 whole entry): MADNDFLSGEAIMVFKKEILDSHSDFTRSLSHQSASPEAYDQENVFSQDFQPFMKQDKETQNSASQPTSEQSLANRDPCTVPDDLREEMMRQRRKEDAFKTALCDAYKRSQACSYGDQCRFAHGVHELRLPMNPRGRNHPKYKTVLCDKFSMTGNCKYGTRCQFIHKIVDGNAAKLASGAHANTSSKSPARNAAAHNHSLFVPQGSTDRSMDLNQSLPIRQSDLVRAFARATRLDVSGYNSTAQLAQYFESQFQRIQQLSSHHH
Put plainly: disruptors of C. elegans POS-1 RNA interaction – biochemical, fluorescence polarization, dose response (AID 1964).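 Also: purified POS-1 fused to maltose binding protein made in E. coli; potency of compounds blocking POS-1 binding to fluorescent RNA.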 In general terms: In fluorescence polarisation assays a small probe gives low polarisation when free and higher when bound to something large.

In test [6] the target is T2, Ubiquitin-conjugating enzyme E2 N (Homo sapiens, UniProt P61088).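 Also: Dose-response confirmation in a TR-FRET assay detecting UBC13-driven polyubiquitin chain formation, inhibition measured.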
T2 sequence (P61088 whole entry): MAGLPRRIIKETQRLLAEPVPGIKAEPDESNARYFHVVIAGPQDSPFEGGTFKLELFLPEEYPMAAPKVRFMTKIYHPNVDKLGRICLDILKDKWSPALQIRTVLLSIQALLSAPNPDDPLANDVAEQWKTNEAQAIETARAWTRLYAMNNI
It is filed as functional.

Test [7] has as its target SUMO-activating enzyme (Homo sapiens, UniProt Q9UBT2). Nature of the test: blockers of SAE1/SAE2–UBC9 SUMO transfer – biochemical, HTRF, uHTS, primary screen (AID 2006). The test is classed as protein-complex assay. For orientation: TR-FRET usually uses a lanthanide donor and a delayed reading to cut background.
For test [8], the target named is T3, 1-phosphatidylinositol 4,5-bisphosphate phosphodiesterase gamma-1 (Homo sapiens, UniProt P19174).
T3 sequence (P19174 whole entry): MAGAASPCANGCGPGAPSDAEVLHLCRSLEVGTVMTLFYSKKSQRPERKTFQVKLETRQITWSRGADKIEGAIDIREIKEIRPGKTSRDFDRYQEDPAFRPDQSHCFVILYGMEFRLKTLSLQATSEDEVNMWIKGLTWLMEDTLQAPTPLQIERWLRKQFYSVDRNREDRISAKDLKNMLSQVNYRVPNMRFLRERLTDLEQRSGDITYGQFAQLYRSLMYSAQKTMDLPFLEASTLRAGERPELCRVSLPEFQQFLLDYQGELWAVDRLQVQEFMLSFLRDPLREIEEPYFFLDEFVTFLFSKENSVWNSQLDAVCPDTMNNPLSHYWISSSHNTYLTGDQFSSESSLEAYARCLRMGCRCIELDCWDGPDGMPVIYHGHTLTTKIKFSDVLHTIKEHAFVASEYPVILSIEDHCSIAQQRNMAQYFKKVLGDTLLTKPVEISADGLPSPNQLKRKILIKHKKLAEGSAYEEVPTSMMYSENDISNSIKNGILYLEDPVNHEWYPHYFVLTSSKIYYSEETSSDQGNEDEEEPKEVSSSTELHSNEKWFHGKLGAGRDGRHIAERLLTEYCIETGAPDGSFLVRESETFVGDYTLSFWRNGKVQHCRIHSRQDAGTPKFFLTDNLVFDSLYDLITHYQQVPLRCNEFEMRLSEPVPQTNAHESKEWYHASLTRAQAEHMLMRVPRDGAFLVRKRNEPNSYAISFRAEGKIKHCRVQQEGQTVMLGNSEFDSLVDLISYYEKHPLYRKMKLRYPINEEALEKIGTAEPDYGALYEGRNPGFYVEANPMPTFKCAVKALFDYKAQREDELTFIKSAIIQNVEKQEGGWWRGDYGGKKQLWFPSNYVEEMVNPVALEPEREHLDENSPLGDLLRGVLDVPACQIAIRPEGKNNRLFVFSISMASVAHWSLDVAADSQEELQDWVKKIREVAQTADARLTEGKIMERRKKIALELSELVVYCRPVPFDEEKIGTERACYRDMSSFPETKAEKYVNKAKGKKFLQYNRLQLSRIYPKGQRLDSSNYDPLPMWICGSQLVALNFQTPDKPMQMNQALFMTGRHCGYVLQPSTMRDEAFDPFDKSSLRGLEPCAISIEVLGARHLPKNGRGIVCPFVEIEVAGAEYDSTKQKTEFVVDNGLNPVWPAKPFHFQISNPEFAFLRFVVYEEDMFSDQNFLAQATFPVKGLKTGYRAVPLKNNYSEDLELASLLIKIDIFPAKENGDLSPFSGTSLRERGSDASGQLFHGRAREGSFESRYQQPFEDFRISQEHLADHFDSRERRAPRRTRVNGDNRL
Put plainly: Counterscreen for inhibitors of phospholipase C isozymes (PLC-B3): Fluorescence-based biochemical high throughput dose response assay to identify inhibitors of phospholipase C isozymes (PLC-gamma1). Background: Counterscreens check selectivity or assay interference.

For test [9], the target named is Troponin, cardiac muscle (Homo sapiens, UniProt P19429+P45379+P63316). Nature of the test: compounds desensitizing RTF to calcium – biochemical, fluorescence, cardiac regulated thin filaments, triplicate IC50, dose response (AID 504742). It is filed as protein-complex assay.
The target in test [10] is Proto-oncogene tyrosine-protein kinase receptor Ret (Homo sapiens, UniProt P07949). It is filed as functional.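 Also: measured within a kinome-wide profiling panel, RET as the panel member.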
Test [11] has as its target Mitogen-activated protein kinase 14 (Homo sapiens, UniProt Q16539). The test is classed as functional.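 Also: part of a kinome-wide panel, MAPK14 entry.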
In test [12] the target is Protein kinase C theta type (Homo sapiens, UniProt Q04759). Put plainly: Navigating the Kinome. Panel member name: PRKCQ. The test is classed as functional.
The target in test [13] is Cyclin-dependent kinase 19 (Homo sapiens, UniProt Q9BWU1). Put plainly: Navigating the Kinome. Panel member name: CDC2L6. It is filed as functional.
Test [14] addresses ATP-dependent molecular chaperone HSP82 (Candida albicans (strain WO-1) (Yeast), UniProt C4YTQ8). Nature of the test: steroid-induced GRE reporter decrease in yeast – S. cerevisiae, luminescence, Hsp90 inhibitor project, dose response (AID 2400).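 Also: beta-galactosidase luminescence from glucocorticoid response element reporter as proxy for Hsp90 function; inhibitor potency where signal loss means Hsp90 inhibition.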 The test is classed as functional, cell-based.
The nature of test [15]: cells. The test is classed as functional, cell-based.

Structures are written as SMILES. The source made the active and inactive calls.

Chain of Proto-oncogene tyrosine-protein kinase receptor Ret (P07949 whole entry): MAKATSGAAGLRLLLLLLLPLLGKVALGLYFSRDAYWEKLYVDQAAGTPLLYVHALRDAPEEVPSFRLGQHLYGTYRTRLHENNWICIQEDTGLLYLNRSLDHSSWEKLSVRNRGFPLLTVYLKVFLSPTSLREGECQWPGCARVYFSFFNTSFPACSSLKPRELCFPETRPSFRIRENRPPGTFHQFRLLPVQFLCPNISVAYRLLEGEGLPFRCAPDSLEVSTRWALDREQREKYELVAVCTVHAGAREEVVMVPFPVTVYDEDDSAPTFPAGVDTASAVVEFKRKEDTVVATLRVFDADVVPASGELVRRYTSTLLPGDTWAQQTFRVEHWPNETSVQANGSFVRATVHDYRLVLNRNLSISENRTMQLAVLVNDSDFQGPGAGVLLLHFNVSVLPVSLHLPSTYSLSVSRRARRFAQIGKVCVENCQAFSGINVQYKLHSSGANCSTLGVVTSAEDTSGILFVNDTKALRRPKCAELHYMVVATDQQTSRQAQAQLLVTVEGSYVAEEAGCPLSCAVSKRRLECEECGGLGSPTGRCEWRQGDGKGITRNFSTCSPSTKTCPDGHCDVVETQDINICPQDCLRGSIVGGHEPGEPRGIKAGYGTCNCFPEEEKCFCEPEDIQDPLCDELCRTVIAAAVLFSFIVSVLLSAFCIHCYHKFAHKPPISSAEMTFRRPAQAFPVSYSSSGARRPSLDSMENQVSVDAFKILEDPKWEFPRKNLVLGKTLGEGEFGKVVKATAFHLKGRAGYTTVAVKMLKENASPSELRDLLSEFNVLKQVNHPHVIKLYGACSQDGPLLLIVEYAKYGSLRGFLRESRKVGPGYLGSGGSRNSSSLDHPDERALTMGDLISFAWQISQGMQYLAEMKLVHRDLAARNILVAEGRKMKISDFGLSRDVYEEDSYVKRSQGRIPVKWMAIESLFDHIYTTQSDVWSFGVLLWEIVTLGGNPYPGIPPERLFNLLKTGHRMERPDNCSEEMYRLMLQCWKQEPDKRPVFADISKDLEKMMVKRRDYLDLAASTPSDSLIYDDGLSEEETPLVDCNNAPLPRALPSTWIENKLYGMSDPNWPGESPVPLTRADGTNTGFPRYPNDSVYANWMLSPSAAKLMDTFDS
Chain of Protein kinase C theta type (Q04759 whole entry): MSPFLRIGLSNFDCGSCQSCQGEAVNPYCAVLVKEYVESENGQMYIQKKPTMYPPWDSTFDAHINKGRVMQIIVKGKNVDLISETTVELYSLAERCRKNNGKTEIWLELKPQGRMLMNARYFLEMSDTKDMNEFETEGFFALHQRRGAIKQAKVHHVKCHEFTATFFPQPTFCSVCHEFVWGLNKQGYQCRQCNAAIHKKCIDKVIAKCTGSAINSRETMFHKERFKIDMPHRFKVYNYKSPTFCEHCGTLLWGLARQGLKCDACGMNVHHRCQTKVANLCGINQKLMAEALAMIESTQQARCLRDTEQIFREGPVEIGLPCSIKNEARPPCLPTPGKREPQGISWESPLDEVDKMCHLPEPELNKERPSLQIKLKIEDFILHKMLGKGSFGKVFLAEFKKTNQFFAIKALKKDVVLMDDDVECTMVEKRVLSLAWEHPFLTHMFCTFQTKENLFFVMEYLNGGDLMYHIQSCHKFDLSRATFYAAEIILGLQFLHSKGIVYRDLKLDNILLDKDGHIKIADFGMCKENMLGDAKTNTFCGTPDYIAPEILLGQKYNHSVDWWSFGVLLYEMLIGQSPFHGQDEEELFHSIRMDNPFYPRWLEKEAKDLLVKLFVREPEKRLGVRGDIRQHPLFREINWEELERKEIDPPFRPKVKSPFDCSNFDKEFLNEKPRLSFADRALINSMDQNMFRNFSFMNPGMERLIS
Chain of ATP-dependent molecular chaperone HSP82 (C4YTQ8 whole entry): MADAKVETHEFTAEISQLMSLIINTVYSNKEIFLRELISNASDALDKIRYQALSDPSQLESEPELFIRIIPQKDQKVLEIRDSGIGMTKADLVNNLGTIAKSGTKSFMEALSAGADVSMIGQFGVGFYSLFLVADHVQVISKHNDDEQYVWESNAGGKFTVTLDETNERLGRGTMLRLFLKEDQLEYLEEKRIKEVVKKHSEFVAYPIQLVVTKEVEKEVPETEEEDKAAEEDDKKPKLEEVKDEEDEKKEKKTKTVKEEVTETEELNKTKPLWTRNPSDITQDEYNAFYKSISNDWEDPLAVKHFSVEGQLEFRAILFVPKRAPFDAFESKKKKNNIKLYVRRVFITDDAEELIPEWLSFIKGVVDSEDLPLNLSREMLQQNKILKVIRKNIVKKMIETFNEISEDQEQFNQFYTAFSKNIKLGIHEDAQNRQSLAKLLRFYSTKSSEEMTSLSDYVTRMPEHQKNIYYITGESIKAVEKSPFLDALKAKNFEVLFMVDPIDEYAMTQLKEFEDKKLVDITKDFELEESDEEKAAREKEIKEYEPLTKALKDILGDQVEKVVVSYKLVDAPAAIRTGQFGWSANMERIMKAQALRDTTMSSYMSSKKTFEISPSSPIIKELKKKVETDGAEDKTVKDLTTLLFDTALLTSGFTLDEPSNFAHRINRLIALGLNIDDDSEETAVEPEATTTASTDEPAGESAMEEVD
Chain of Sphingosine 1-phosphate receptor 1 (P21453 whole entry): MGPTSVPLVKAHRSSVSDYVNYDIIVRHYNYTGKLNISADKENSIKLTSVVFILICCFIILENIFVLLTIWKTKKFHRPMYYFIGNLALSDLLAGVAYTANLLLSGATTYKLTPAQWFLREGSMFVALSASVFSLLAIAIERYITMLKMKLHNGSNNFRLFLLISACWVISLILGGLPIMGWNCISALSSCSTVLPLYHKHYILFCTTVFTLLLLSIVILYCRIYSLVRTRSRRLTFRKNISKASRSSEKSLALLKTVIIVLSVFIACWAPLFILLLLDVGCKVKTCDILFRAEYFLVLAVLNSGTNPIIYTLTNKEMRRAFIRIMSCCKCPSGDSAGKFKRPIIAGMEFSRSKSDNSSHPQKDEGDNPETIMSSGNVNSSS
Chain of Mitogen-activated protein kinase 14 (Q16539 whole entry): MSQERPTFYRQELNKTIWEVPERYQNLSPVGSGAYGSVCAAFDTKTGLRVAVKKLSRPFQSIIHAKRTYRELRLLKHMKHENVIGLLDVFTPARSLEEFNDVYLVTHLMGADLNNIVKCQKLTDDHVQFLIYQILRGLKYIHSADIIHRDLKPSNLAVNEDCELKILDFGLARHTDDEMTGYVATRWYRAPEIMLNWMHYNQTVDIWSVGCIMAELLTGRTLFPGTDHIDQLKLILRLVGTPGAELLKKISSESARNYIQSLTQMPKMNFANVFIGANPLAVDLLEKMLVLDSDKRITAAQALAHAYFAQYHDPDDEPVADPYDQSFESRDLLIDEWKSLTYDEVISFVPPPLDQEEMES
Chain of SUMO-activating enzyme (Q9UBE0 whole entry): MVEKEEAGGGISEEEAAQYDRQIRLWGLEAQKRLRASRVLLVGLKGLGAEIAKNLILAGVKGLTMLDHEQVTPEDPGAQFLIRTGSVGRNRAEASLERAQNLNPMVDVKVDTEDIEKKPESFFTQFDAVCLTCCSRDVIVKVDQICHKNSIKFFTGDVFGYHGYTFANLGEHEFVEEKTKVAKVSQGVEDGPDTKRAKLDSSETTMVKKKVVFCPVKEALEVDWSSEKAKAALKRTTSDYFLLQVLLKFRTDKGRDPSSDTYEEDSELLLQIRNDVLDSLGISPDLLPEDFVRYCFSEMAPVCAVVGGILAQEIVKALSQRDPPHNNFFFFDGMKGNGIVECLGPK
Chain of SUMO-activating enzyme (Q9UBT2 whole entry): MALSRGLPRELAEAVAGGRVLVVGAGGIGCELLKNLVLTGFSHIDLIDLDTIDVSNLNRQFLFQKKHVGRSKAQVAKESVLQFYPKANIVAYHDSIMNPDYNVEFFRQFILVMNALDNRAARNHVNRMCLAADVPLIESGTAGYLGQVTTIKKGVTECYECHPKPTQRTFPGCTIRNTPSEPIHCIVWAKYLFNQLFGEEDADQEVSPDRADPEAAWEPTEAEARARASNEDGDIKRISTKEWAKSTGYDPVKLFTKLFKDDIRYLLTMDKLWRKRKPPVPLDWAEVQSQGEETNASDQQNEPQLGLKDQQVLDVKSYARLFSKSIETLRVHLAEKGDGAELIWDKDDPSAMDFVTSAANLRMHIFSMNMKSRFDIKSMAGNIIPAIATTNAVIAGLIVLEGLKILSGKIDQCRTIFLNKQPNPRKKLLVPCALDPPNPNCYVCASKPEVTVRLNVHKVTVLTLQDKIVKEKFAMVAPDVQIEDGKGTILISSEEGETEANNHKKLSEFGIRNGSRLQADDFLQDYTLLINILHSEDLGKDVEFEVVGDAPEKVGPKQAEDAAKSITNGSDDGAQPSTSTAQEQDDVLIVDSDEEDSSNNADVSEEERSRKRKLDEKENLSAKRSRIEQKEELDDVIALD
Chain of Cyclin-dependent kinase 19 (Q9BWU1 whole entry): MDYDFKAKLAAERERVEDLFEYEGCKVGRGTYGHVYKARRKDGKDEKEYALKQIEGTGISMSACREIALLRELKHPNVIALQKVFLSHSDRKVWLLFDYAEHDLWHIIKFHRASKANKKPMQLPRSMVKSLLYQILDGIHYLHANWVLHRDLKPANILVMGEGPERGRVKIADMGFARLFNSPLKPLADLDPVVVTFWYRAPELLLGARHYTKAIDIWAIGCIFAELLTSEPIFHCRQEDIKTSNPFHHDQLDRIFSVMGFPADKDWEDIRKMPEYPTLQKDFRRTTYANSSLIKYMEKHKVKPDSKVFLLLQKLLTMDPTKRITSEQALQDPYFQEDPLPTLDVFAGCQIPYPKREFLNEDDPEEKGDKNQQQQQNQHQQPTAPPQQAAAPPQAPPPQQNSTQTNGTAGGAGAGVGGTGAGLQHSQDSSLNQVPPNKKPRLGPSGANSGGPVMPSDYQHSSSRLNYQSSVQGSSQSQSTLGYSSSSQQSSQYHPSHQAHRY

As to `Cc1ccc(C(=O)OCn2ncc(Cl)c(Cl)c2=O)cc1`, in test [1], the AC50 was 9.52 µM (active). Also, the figures for the IC50 in test [2], in test [3] and in test [4] were 1.53 µM (active), 0.889 µM (active) and 10.6 µM (not active), respectively.
`O=C(O)CC(C(=O)O)N1C(=O)/C(=C/C=C/c2ccco2)SC1=S` (stereo not given): the EC50 in [5] was 10.4 µM (active). The IC50 was > 20 µM (inactive) in test [6], 13.7 µM (active) in test [7], > 1.51 µM (active) in test [8] and > 71.5 µM (inactive) in test [9].
As to `O=C(Nc1cccc(C2Nc3ccc4ccccc4c3C3C=CCC32)c1)c1ccc(F)cc1` (stereo not given), the results for the Ki in [10], in [11] and in [12] were > 3.16 µM (inactive), > 3.98 µM (inactive) and 1 µM (active), respectively.
Regarding `Cc1ccc(-c2cc(-c3cc(Br)ccc3O)[nH]c(=O)c2C#N)s1`, in [13], the Ki was > 100 µM (inactive).
For `CCCC(=O)NC(c1cccs1)c1cc(Cl)c2cccnc2c1O` (stereo not given), the results for the EC50 in test [14] and in test [15] were > 150 µM (inactive) and 24.4 µM (active), respectively.

The AC50 is the concentration giving half of the maximal activity seen. In general, IC50 refers to the concentration that gives 50% inhibition. As a reminder, the EC50 is the concentration at which the effect is half-maximal. The term Ki denotes a measure of affinity in units of concentration, obtained from inhibition or displacement.
